This is an account of results in US20100075960A1 (priority 2006, published 2010).

As a reminder, the IC50 is the concentration that gives 50% inhibition. Read a low IC50 as inhibition by little substance.

The test system of this assay is HCT116. Nature of the assay: Inhibition of cell proliferation, HCT116. It is filed as cell-based. The following applies: Homo sapiens, HCT-116; 72 h treatment; methylene blue or CellTiter-Glo. Here is the method: II. Inhibition of Cell Proliferation by PLK1 Inhibitors.
Exponentially growing cell lines of different tumor origins, cultured in appropriate media containing 10% fetal bovine serum at 37° C. in a 5% CO2 incubator were plated in 96 or 384-well plates. Twenty four hours post-plating, cells were treated with different concentrations of test compounds ranging from 20 μM to 0.04 nM. Several wells were left untreated as a control. Seventy two hours post-treatment, cell numbers were determined using different techniques; 100 μl per well of methylene blue (Sigma M9140) (0.5% in 50:50 Ethanol:water), or 10-100 μl per well of CellTiter-Glo (Promega #G7573), depending on well size. For methylene blue staining, stain was incubated at room temperature for 30 minutes before plates were rinsed and dye solubilized in 1% N-lauroyl sarcosine, sodium salt, (Sigma L5125, in PBS). Plates were read on a microplate reader, measuring the OD at 620 nm. For CellTiter-Glo, plates were incubated at room temperature for 15 minutes and the chemiluminescent signal was read on the Victor V or Envison 2100 reader.
Percent inhibition of cell growth was expressed as percent proliferation relative to 100% proliferation (control). Concentration of test compound that inhibited 50% of cell growth (IC50) was determined by 4 parameter fit of data using XLfit, (value of no cell control was substracted from all samples for background). The data are shown in Table 1 and Table 2 below and represent a compilation of several different experiments each performed using the general parameters outlined above, although minor variations may have been employed in some instances, in Table 1 and Table 2, +=IC50>1 μM; ++=IC50 0.5-1 μM: +++=IC50<0.5 μM.
A general note: ATP-based viability assays read luminescence as a measure of living cells.
Take `C[C@@H](Oc1cc(-n2cnc3ccc(OC(F)(F)F)cc32)sc1C(N)=O)c1cccc(OC2CCN(C)CC2)c1Cl` [Example 64, 3-[((1R)-1-(2-chloro-3-[(1-methyl-4-piperidinyl)oxy]phenyl}ethyl)oxy]-5-{6-[(trifluoromethyl)oxy]-1H-benzimidazol-1-yl}-2-thiophenecarboxamide]: the 50% inhibitory concentration (IC50) is under 500 nM.
With `C[C@@H](Oc1cc(-n2cnc3cc(-c4cnn(C)c4)ccc32)sc1C(N)=O)c1cccc(OCCN2CCOCC2)c1Cl` [Example 25, 3-{[(1R)-1-(2-chloro-3-{[2-(4-morpholinyl)ethyl]oxy}phenyl)ethyl]oxy}-5-[5-(1-methyl-1H-pyrazol-4yl)-1H-benzimidazol-1-yl]-2-thiophenecarboxamide], the IC50 was under 500 nM.
`COc1cc2ncn(-c3cc(O[C@H](C)c4cccc(NCC5CCNCC5)c4Cl)c(C(N)=O)s3)c2cc1OC` [Example 1] returned a 50% inhibitory concentration (IC50) of 500 to 1000 nM.
As for `CC(Oc1cc(-n2cnc3cc(-c4cnn(C)c4)ccc32)sc1C(N)=O)c1ccnc(OC2CCN(C)CC2)c1` (stereo not shown) [Example 80], the IC50 is over 1000 nM.
For the molecule `C[C@@H](Oc1cc(-n2cnc3cc(-c4cnn(C)c4)ccc32)sc1C(N)=O)c1ccc(F)c(OC2CCN(CCF)CC2)c1Cl` [Example 35, 3-{[(1R)-1-(2-Chloro-4-fluoro-3-{[1-(2-fluoroethyl)-4-piperidinyl]oxy}phenyl)ethyl]oxy}-5-[5-(1-methyl-1H-pyrazol-4-yl)-1H-benzimidazol-1-y]-2-thiophenecarboxamide], the concentration for half-maximal inhibition (IC50) was under 500 nM.
In the case of `CC(Oc1cc(-n2cnc3cc(-c4cnn(C)c4)ccc32)sc1C(N)=O)c1cc(OC2CCNCC2)ccn1` (stereo not shown) [Example 85, 5-[5-(1-Methyl-1H-pyrazol-4-yl)-1H-benzimidazol-1-yl]-3-({1-[4-(4-piperidinyloxy)-2-pyridinyl]ethyl}oxy)-2-thiophenecarboxamide], the IC50 is over 1000 nM.
In the case of `C[C@@H](Oc1cc(-n2cnc3cc(-c4cccnc4)ccc32)sc1C(N)=O)c1cccc(OC2CCNCC2)c1Cl` [Example 12, 3-({(1R)-1-[2-chloro-3-(4-piperidinyloxy)phenyl]ethyl}oxy)-5-[5-(3-pyridinyl)-1H-benzimidazol-1-yl]-2-thiophenecarboxamide] it was under 500 nM; in that of `C[C@@H](Oc1cc(-n2cnc3cc(Cl)ccc32)sc1C(N)=O)c1cccc(OC[C@H]2CNCCO2)c1Cl` [Example 27, 5-(5-Chloro-1H-benzimidazol-1-yl)-3-{[(1R)-1-(2-chloro-3-{[(2R)-2-morpholinomethyl]oxy}phenyl)ethyl]oxy}-2-thiophenecarboxamide], under 500 nM.
The molecule `C[C@@H](Oc1cc(-n2cnc3cc(-c4cnn(C)c4)ccc32)sc1C(N)=O)c1ccc(F)c(OC2CCN(CCS(C)(=O)=O)CC2)c1Cl` [Example 36, 3-({(1R)-1-[2-Chloro-4-fluoro-3-({1-[2-(methylsulfonyl)ethyl]-4-piperidinyl}oxy)phenyl]ethyl}oxy)-5-[5-(1-methyl-1H-pyrazol-4-yl)-1H-benzimidazol-1-yl]-2-thiophenecarboxamide] returned an IC50 of under 500 nM.
On to `Cc1nnc(-c2ccc3c(c2)ncn3-c2cc(O[C@H](C)c3cccc(OC4CCNCC4)c3Cl)c(C(N)=O)s2)o1` [Example 87, 3-({(1R)-1-(2-Chloro-3-(4-piperidinyloxy)phenyl]ethyl}oxy)-5-[5-(5-methyl-1,3,4-oxadiazol-2-yl)-1H-benzimidazol-1-yl]-2-thiophenecarboxamide], for which the 50% inhibitory concentration (IC50) was under 500 nM.
With `C[C@@H](Oc1cc(-n2cnc3cc(Cl)c(Cl)cc32)sc1C(N)=O)c1cccc(OC2CCNCC2)c1Cl` [Example 71, 3-({(1R)-1-[2-Chloro-3-(4-piperidinyloxy)phenyl]ethyl}oxy)-5-(5,6-dichloro-1H-benzimidazol-1-yl)-2-thiophenecarboxamide] the figure was under 500 nM.
As for `C[C@@H](Oc1cc(-n2cnc3cc(OC(F)(F)F)ccc32)sc1C(N)=O)c1cccc(OC2CCN(C)CC2)c1Cl` [Example 62, 3-[((1R)-1-{2-chloro-3-[(1-methyl-4-piperidinyl)oxy]phenyl}ethyl)oxy]-5-{5-[(trifluoromethyl)oxy]-1H-benzimidazol-1-yl}-2-thiophenecarboxamide], the concentration for half-maximal inhibition (IC50) is under 500 nM.
As to `CC(Oc1cc(-n2cnc3cc(-c4cnn(C)c4)ccc32)sc1C(N)=O)c1cccc(OC2CCNCC2)c1F` (racemic) [Example 75], the IC50 was under 500 nM.
In the case of `C[C@@H](Oc1cc(-n2cnc3cc(Cl)c(Cl)cc32)sc1C(N)=O)c1cccc(OC2CCN(C)CC2)c1Cl` [Example 72, 3-[((1R)-1-(2-chloro-3-[(1-methyl-4-piperidinyl)oxy]phenyl}ethyl)oxy]-5-(5,6-dichloro-1H-benzimidazol-1-yl)-2-thiophenecarboxamide] it was under 500 nM; in that of `C[C@@H](Oc1cc(-n2cnc3cc(-c4cnn(C)c4)ccc32)sc1C(N)=O)c1cccc(OC2CCN(CCC(F)(F)F)CC2)c1Cl` [Example 30, 3-{[(1R)-1-(2-chloro-3-{[1-(3,3,3-trifluoropropyl)-4-piperidinyl]oxy}phenyl)ethyl]oxy}-5-[5-(1-methyl-1H-pyrazol-4-yl)-1H-benzimidazol-1-yl]-2-thiophenecarboxamide], under 500 nM; in that of `C[C@@H](Oc1cc(-n2cnc3cc(Cl)ccc32)sc1C(N)=O)c1cccc(OC2CCN(CCF)CC2)c1Cl` [Example 21, 5-(5-Chloro-1H-benzimidazol-1-yl)-3-{[(1R)-1-(2-chloro-3-{[1-(2-fluoroethyl)-4-piperidinyl]oxy}phenyl)ethyl]oxy}-2-thiophenecarboxamide], under 500 nM.
`COc1cc2ncn(-c3cc(O[C@H](C)c4cccc(NCC5CCN(C)CC5)c4Cl)c(C(N)=O)s3)c2cc1OC` [Example 2] displayed an IC50 of under 500 nM.
With `CC(Oc1cc(-n2cnc3cc(-c4cnn(C)c4)ccc32)sc1C(N)=O)c1ccnc(OC2CCNCC2)n1` (racemic) [Example 77, (±)-5-[5-(1-Methyl-1H-pyrazol-4-yl)-1H-benzimidazol-1-yl]-3-({1-[2-(4-piperidinyloxy-4-pyrimidinyl]ethyl}oxy)-2-thiophenecarboxamide] the figure was over 1000 nM; with `C[C@@H](Oc1cc(-n2cnc3ccccc32)sc1C(N)=O)c1cccc(OCCN2CCOCC2)c1Cl` [Example 15, 5-(1H-benzimidazol-1-yl)-3-{[(1R)-1-(2-chloro-3-{[2-(4-morpholinyl)ethyl]oxy}phenyl)ethyl]oxy)-2-thiophenecarboxamide], under 500 nM; with `C[C@@H](Oc1cc(-n2cnc3cc(F)c(Cl)cc32)sc1C(N)=O)c1cccc(OC2CCNCC2)c1Cl` [Example 69, 5-(6-Chloro-5-fluoro-1H-benzimidazol-1-yl)-3-({(1R)-1-[2-chloro-3-(4-piperidinyloxy)phenyl]ethyl}oxy)-2-thiophenecarboxamide], under 500 nM.
With `C[C@@H](Oc1cc(-n2cnc3cc(-c4ccc(NC5CCN(C)CC5)nc4)ccc32)sc1C(N)=O)c1cccc(OC2CCN(C)CC2)c1Cl` [Example 18] the figure was under 500 nM.
For the molecule `C[C@@H](Oc1cc(-n2cnc3cc(Cl)c(F)cc32)sc1C(N)=O)c1cccc(OC2CCN(C)CC2)c1Cl` [Example 68, 5-(5-Chloro-6-fluoro-1H-benzimidazol-1-yl)-3-[((1R)-1-{2-chloro-3-[(1-methyl-4-piperidinyl)oxy]phenyl}ethyl)oxy]-2-thiophenecarboxamide], the IC50 was under 500 nM.
